Publication PMC5380659, “Unique charge-dependent constraint on collagen recognition by integrin α10β1” (Matrix Biology, 2017)
Entries after “also recorded” stand apart in the source; their conditions may differ.

Columns and labels:
α10β1 [1] = test: Overall recognition by α10β1 (I domain and C2C12-α10β1 cells, summary); details: abstract and discussion; I domain and/or C2C12-α10β1 cells
Method: (§1) I domain adhesion was determined colorimetrically, as described, here termed solid phase binding assay (SPBA). Peptides were coated at 10 μg/ml for 1 h at 22 °C on Immulon-2 HB 96-well plates (Thermo Life Sciences, Basingstoke, UK), and blocked for 1 h with 200 μl of TBS containing 50 mg/ml bovine serum albumin. Wells were washed four times with 200 μl of the adhesion buffer (TBS with 1 mg/ml bovine serum albumin) before adding 100 μl of adhesion buffer containing 10 μg/ml of recombinant GST I domains in the presence of either 2 mM MgCl2 or EDTA for 1 h at room temperature. Wells were washed five times with 200 μl of adhesion buffer containing MgCl2 or EDTA, before adding 100 μl of adhesion buffer containing the anti-GST-HRP conjugate at 1:10,000 dilution for 1 h at room temperature. After washing, colour was developed using an ImmunoPure TMB Substrate Kit (Pierce) according to the manufacturer's instructions.
(§2) The mouse myoblast cell line, C2C12, (control and transfectants, C2C12-α1β1, C2C12-α2β1, C2C12-α10β1 or C2C12-α11β1) was maintained in RPMI medium containing 10% fetal bovine serum, 2 mM glutamine, 100 IU/ml penicillin, 100 μg/ml streptomycin, and 2.5 μg/ml amphotericin. Cells were harvested by centrifugation, washed, and suspended at 0.5 × 10^6/ml in Tris-buffered saline supplemented with 5.5 mM glucose and either 2 mM EDTA or 2 mM MgCl2. SPBA was performed as follows: 100 μl of the cell suspension was added to peptide-coated wells [42] at 20 °C for 60 min. Cell adhesion was determined colorimetrically after lysis, using a lactate dehydrogenase (LDH)-based cell detection kit (Roche Diagnostics) according to the supplier's instructions.
(§3) To quantitate C2C12-α10β1 binding to collagen peptides, we used the impedance-based xCELLigence system (Acea) that allows label-free, dynamic monitoring of cell adhesion in real-time. The assay system expresses the adhesion-dependent rise in well impedance in units of cell index (CI), defined as (Rn − Rb) / 15; where Rn is the electrical impedance of each cell-containing well and Rb is the background impedance of the well with medium alone

[2] = tested on: human recombinant GST-α10 I domain; test: Solid-phase binding assay (SPBA) of wild-type α10 I domain; details: short THPs, 2 mM Mg^2 +, 1 h, Fig. 4A
Method: The α10 I domain was applied to the collagen II and III Toolkits in the presence or absence of Mg^2 +, and was detected using anti-GST, as described in Experimental: data are shown in Fig. 1. The background response is indicated by wells coated with the control peptide, GPP10 (corresponding to the host sequence), or BSA.
as §1

C2C12-α10β1 cells [3] = test: LDH-based SPBA of C2C12-α10β1 cell adhesion; parameters: species or system mouse; details: short THPs, 2 mM Mg^2 +, 1 h, Fig. 4B
Method: The mouse myoblast cell line, C2C12-α10β1 clone, expresses α10β1 as its sole collagen-binding integrin [16]. To investigate the binding of α10β1 to collagen in a cellular and whole integrin context, therefore, the adhesion of C2C12-α10β1 cells to Toolkits II and III was performed using two different approaches. First, SPBA was used, with lactate dehydrogenase to report the presence of adherent cells, after lysis, as described in Experimental. […] C2C12-α10B1 cells generally bound more prominently to those weaker peptides that supported just-observable binding of free I-domain. This may reflect avidity of the receptor-populated cell surface for the peptide-coated wells, or perhaps up-regulation of integrin affinity following receptor engagement. It is also possible that some cell binding reflects specific indirect interactions. For example, fibronectin, available either by intrinsic expression or from the serum supplement, binds well to II-44, and can also bind integrin αVβ3 [21].
Fig. 2 Binding of α10β1-transfected C2C12 cells to Collagen Toolkits. 96-well plates were coated with peptides as for Fig. 1, then C2C12-α10β1 cells (5 × 10^4 per well) were added and incubated for 1 h in the presence of either 2 mM MgCl2 or 2 mM EDTA as above. A: binding to Toolkit II. B: binding to Toolkit III.
as §2

[4] = tested on: collagen-binding integrins; parameters: method as in 3 sources, ref [7], [8] = [7]; PMID 10778855; doi:10.1016/S0092-8674(00)80622-4; 7 Emsley J. Knight C.G. Farndale R.W. Barnes M.J. Liddington R.C. Structural basis of collagen recognition by integrin alpha2beta1 Cell 101 1 2000 47 56 10778855 10.1016/S0092-8674(00)80622-4 || [8]; PMID 16326707; doi:10.1074/jbc.M509818200; 8 Raynal N. Hamaia S.W. Siljander P.R. Maddox B. Peachey A.R. Fernandez R. Foley L.J. Slatter D.A. Jarvis G.E. Farndale R.W. Use of synthetic peptides to locate novel integrin alpha2beta1-binding moti ||| ref [8], [10] = [8]; PMID 16326707; doi:10.1074/jbc.M509818200; 8 Raynal N. Hamaia S.W. Siljander P.R. Maddox B. Peachey A.R. Fernandez R. Foley L.J. Slatter D.A. Jarvis G.E. Farndale R.W. Use of synthetic peptides to locate novel integrin alpha2beta1-binding moti || [10]; PMID 16043429; doi:10.1074/jbc.M502431200; 10 Kim J.K. Xu Y. Xu X. Keene D.R. Gurusiddappa S. Liang X. Wary K.K. Hook M. A novel binding site in collagen type III for the integrins, alpha 1beta 1 and alpha 2beta 1 J. Biol. Chem. 280 2005 32512 ||| ref [11] = [11]; PMID 10986291; doi:10.1074/jbc.M007668200; 11 Xu Y. Gurusiddappa S. Rich R.L. Owens R.T. Keene D.R. Mayne R. Hook A. Hook M. Multiple binding sites in collagen type I for the integrins α1β1 and α2β1 J. Biol. Chem. 275 2000 38981 38989 10986291; details: ref [11]; cited from earlier work
Text: Many related motifs have now been identified using the Collagen Toolkits developed in this laboratory for the purpose. These are libraries of overlapping peptides of 27 amino acids of collagen primary sequence (guest sequence), flanked ...

α10β1 [5] = tested on: α10β1; parameters: method as in not given; details: ref not given; cited from earlier work
Text: In the setting of cartilage, collagen III, although enriched in the pericellular environment, is much less abundant than collagen II [22], and its expression increases with age or with th ...

C2C12-α10β1 cells [6] = test: xCELLigence real-time adhesion of C2C12-α10β1 cells; type: cell-based, mouse; details: 2.5 × 10^4 cells/well, 2 mM Mg^2 +, over 1 h, Fig. 3A
Method: Fig. 3 Binding of α10β1-transfected C2C12 cells to collagens and selected Toolkit peptides. Peptides or collagens were coated on ePlates as described, then cells were added in the presence of 2 mM Mg^2 + or EDTA, and Cell Index value was collected over 1 h. […] B: time courses are shown of adhesion to selected Toolkit peptides or GPP-10.
as §3
Briefly, C2C12 cells were seeded at 2.5 × 10^4 cells/well in an E-plate (Roche Applied Science) pre-coated with peptides as for SPBA, and CI was measured for up to 2 h.

integrin α1β1 = tested on: integrin α1β1; parameters: method as in 3 sources, ref [4]; PMID 19693543; doi:10.1007/s00441-009-0834-6; 4 Barczyk M. Carracedo S. Gullberg D. Integrins Cell Tissue Res. 339 1 2010 269 280 19693543 10.1007/s00441-009-0834-6 PMC2784866 ||| ref [12] = [12]; PMID 22654115; doi:10.1074/jbc.M112.353144; 12 Hamaia S.W. Pugh N. Raynal N. Nemoz B. Stone R. Gullberg D. Bihan D. Farndale R.W. Mapping of potent and specific binding motifs, GLOGEN and GVOGEA, for integrin alpha1beta1 using collagen toolkits ||| ref not given; details: ref [4]; cited from earlier work
Text: The collagen-binding integrin family is complete, with four established members, α1β1, α2β1, α10β1 and α11β1. These are highly-conserved, heterodimeric receptors with an important structural feature in common, the presence of an I (inserted) domain which contains the metal ion-dependent adhesion site (MIDAS). The MIDAS is a constellation of electronegative residues at the distal surface of this 200-residue domain that, in the resting, non-ligated state, can co-ordinate a Mg^2 + ion. […] Many related motifs have now been identified using the Collagen Toolkits developed in this laboratory for the purpose. These are libraries of overlapping peptides of 27 amino acids of collagen primary sequence (guest sequence), flanked ... || Why would collagen II differ in this respect?

Row | Substance | Recognition by α10β1, summary (α10β1 [1]) | Binding of α10 I domain to short triple-helical peptides [2] | Adhesion of C2C12-α10β1 cells to short triple-helical peptides (C2C12-α10β1 cells [3]) | Ligand of collagen-binding integrins, weak motifs [4] | Reported binding of α10β1 to collagens (α10β1 [5]) | Cell adhesion to collagens (Cell Index, endpoint) (C2C12-α10β1 cells [6]) | Preferred ligand of α1β1 (integrin α1β1)
1 | GLOGER [short triple-helical peptide containing GLOGER] | binds α10β1 better than GFOGER, second only to GLOGEN; also recorded: α10β1-positive | less well | bound strongly | – | – | – | –
2 | GLSGER [short triple-helical peptide containing GLSGER] | α10β1-positive | – | bound strongly | weak ligands | – | – | –
3 | collagen II: intact collagen II | – | – | – | – | binds | bound quite well | –
4 | collagen IV: intact collagen IV | – | – | – | – | better ligand | better | preferred ligand
